According to PMC3198734 (PLoS ONE, 2011):
Where no end group is shown, it is not given here.

How the values were obtained:
Acinetobacter baumannii = assay type: cell-based; conditions: data not shown
[1] = test system: IL-1β, GM-CSF, KC, RANTES, MIP-1α in BAL fluid; assay type: in vivo, BALB/c mice

Row | Substance | antimicrobial activity of the preparation (Acinetobacter baumannii) | BAL fluid concentration of GM-CSF compared with PR/8 infected control animals ([1]; mouse, in vivo) | BAL fluid concentration of IL-1β compared with PR/8 infected control animals ([1]; mouse, in vivo) | BAL fluid concentration of KC ([1]; mouse, in vivo) | BAL fluid concentration of MIP-1α (non-significant increase after infection) ([1]; mouse, in vivo) | BAL fluid concentration of RANTES ([1]; mouse, in vivo) | BAL fluid cytokine concentrations in the absence of influenza virus infection ([1]; uninfected mice, nebulized peptide, BAL on day 3)
1 | GLLRKGGEKIGEKLKKIGQKIKNFFQKLVPQPEQ [mCRAMP, mouse cathelicidin peptide] | confirmed |  |  |  |  |  | 
2 | LLGDFFRKSKEKIGKEFKRIVQRIKDFLRNLVPRTES [LL-37, human cathelicidin peptide generated from hCAP-18] | confirmed | significantly lower | significantly lower | unchanged compared with uninfected controls | this increase was ameliorated | unchanged compared with uninfected controls | did not significantly alter cytokine concentrations
3 | RGGRLCYCRRRFCVCVGR-NH2 (also: bicyclic or more (positions not given here)) [Protegrin-1, porcine neutrophil-derived cathelicidin peptide with two disulfide bridges] | confirmed |  |  |  |  |  | 
